Assay: Storage stability of amorphous solifenacin succinate and premix compositions, purity and impurities by HPLC
Format: physicochemical
Details: triple laminated package, nitrogen atmosphere
Description: The spray-dried product was packaged in a triple laminated package (two polyethylene layers covered with a layer of aluminium foil) containing a nitrogen atmosphere and samples were analyzed for impurity content at the time of packaging and after 7 days of storage at 0-5° C., using high-performance liquid chromatography (HPLC). The results are tabulated below:
6. The dried solid was packed in a double polyethylene bag with a silica desiccant pouch and the package was exposed to 0-5° C. and room temperature (RT) conditions for 25 days, then was analyzed by XRD and HPLC. The analytical data are given below:
The solid prepared was packaged in a double polyethylene bag with a silica desiccant and exposed to 0-5° C. and room temperature (RT) conditions for 27 days, and then samples were analyzed by XRD and HPLC. The data are given below:
The dried solid was packaged in a double polyethylene bag with a silica desiccant and exposed to 0-5° C. conditions for 16 days. A sample was then analyzed by XRD and HPLC, giving the following results:
The solid prepared was packaged in a double polyethylene bag and exposed at 0-5° C. and at room temperature (RT) for 20 days. Samples were then analyzed by XRD and by HPLC, giving the data below:
The solid products of Examples 6A and 6B, similarly packaged and stored under 0-5° C. and RT conditions for about 7 months, were analyzed and the data are given below: […]

SMILES: O=C(O[C@H]1CN2CCC1CC2)N1CCc2ccccc2[C@@H]1c1ccccc1 [Example 2, Amorphous Solifenacin Succinate]
- HSI (highest single impurity) (7th day of storage at 0-5° C.): 0.25 % of drug content
- HSI (highest single impurity) (initial, at the time of packaging): 0.03 % of drug content
